Assays:
[1] = tested on: acute wound in a mouse model; experiment: Mouse acute wound healing model (wound closure, H&E, immunohistochemical staining); type: in vivo, C3H mouse; conditions: for re-epithelialization of the acute wound (H&E staining): C3H mouse wound
Method: (A) In order to confirm the wound healing promoting effect of the peptide synthesized in Example 1, hair was removed the back of a 7-week-old C3H mouse and a 1.5 cm×1.5 cm sized wound was made. For a control group, 10 μL of a vehicle (50% ethanol, 20% propylene glycol, 30% water) was applied once a day for a period of 12 days. For test groups, 10 μL of the peptide or valproic acid (VPA) dissolved in the vehicle at concentrations of 100 μM and 500 mM, respectively, was applied. The skin tissue of the experimental mouse was fixed in 4% paraformaldehyde, embedded in paraffin and sliced with a thickness of 4 μm. The sliced tissue was deparaffinized, rehydrated and then stained with hematoxylin (violet) and eosin (pink) for observation of histological structure. For immunohistochemical staining, the skin tissue slice was deparaffinized, rehydrated and then incubated with 10 mM sodium citrate buffer at 121° C. for 15 minutes to recover antigenicity. The slice was blocked with albumin to prevent nonspecific antigen-antibody reactions and then antigen-antibody reactions were induced by treating with β-catenin (1:100), keratin 14 (1:1000) and collagen I (1:500) antibodies used as wound healing markers. Subsequently, after inducing antigen-antibody reactions by treating the slice with fluorescence-labeled secondary antibodies that can recognize the antibodies as antigens, the result was observed using a fluorescence microscope.
(B) In order to compare the wound healing promoting effect of the synthesized peptide with that of the existing drug, 10 μL of a vehicle (50% ethanol, 20% propylene glycol, 30% water), 100 μM PTD-DBM or 1.5 μM fibronectin was applied on a 1.5 cm×1.5 cm sized wound of a 7-week-old C3H mouse once a day for a period of 12 days.

collagen [2] = experiment: Hydroxproline assay of mouse acute wound tissue; type: in vivo, C3H mouse; conditions: wound tissue of Test Example 2; absorbance at 550 nm; FIG. 4B
Method: (B) The tissue used in Test Example 2 was dried in an incubator at 60° C. and then hydrolyzed at 110° C. with 6 N HCl. After adding chloramine T and Ehrlich's reagent to the hydrolyzed tissue, absorbance was measured at 550 nm using the FLUOstar OPTIMA luminometer.

[3] = tested on: β-catenin, keratin 14, α-SMA, collagen I; experiment: Western blotting of mouse wound tissue; type: in vivo, C3H mouse; conditions: wound tissue of Test Example 2; versus control; FIG. 3
Method: The wound tissue used in Test Example 2 was lysed with RIPA buffer and proteins were isolated on 10% SDS polyacrylamide gel and then transferred onto a membrane. The membrane was blocked using 5% nonfat dry skim milk and then incubated with β-catenin (1:1000), α-SMA (1:1000), keratin 14 (1:1000) and collagen I (1:2000) antibodies. After inducing antigen-antibody reactions by adding enzyme-conjugated secondary antibodies that can recognize the antibodies as antigens, the result was observed using a LAS image analyzer.

collagen [4] = experiment: Collagen staining of mouse acute wound tissue (Masson's trichrome, picrosirius red, van Gieson); type: in vivo, C3H mouse; conditions: wound tissue of Test Example 2; FIG. 4A
Method: (A) The mouse tissue used in Test Example 2 was fixed in 4% paraformaldehyde, embedded in paraffin and sliced with a thickness of 4 μm. The sliced tissue was deparaffinized, rehydrated and then subjected to van Gieson staining, Masson's trichrome staining and picrosirius red staining in order to evaluate the degree of collagen synthesis. Van Gieson staining was conducted by immersing the slide in Weigert's solution for 10 minutes and then in picro fuchsin solution for 2 minutes. Masson's trichrome staining was conducted by immersing the slide in Weigert's iron hematoxylin solution for 10 minutes and then in Biebrich scarlet/acid fuchsin and aniline blue for 5 minutes, respectively. Picrosirius red staining was conducted by immersing the slide in Weigert's solution for 8 minutes and then in picrosirius red for 1 hour.

keratinocytes = experiment: Immunocytochemical staining of keratinocytes (peptide infiltration, β-catenin); type: cell-based; conditions: FIG. 1
Method: (§1) For immunocytochemical staining, keratinocytes or fibroblasts were cultured on a 24-well plate and fixed in 4% paraformaldehyde for 15 minutes. After treating with 0.1% Triton X-100 for 15 minutes so that antibodies can permeate well and blocking with albumin so as to prevent nonspecific antigen-antibody reactions, antigen-antibody reactions were induced by treating with β-catenin antibodies. Then, after inducing antigen-antibody reactions by treating with fluorescence-labeled secondary antibodies that can recognize the antibodies as antigens, the result was observed under a fluorescence microscope.

fibroblasts = experiment: Immunocytochemical staining of fibroblasts (peptide infiltration, β-catenin); type: cell-based; conditions: FIG. 1
Method: as §1

[5] = 10 μL topical once a day for 12 days, peptide 100 μM, VPA 500 mM

Compound: CCCC(CCC)C(=O)O [VPA, valproic acid, reference compound]
- re-epithelialization of the acute wound (H&E staining) [1, 5]: quick re-epithelialization
- collagen in acute wound tissue (hydroxproline assay) (collagen [2]): increased collagen
- wound healing markers β-catenin, keratin 14, α-SMA or collagen I (western blotting) [3]: increased as compared to the control
- collagen in acute wound tissue (Masson's trichrome, picrosirius red and van Gieson staining) (collagen [4]): increased collagen

Compound: RRRRRRRRGGGGRKTGHQICKFRKCK-(FITC) [PTD-DBM]
- β-catenin (keratinocytes): increased β-catenin in a concentration-dependent manner
- wound healing effect compared with fibronectin ([1]; 100 μM PTD-DBM vs 1.5 μM fibronectin, 10 μL once a day for 12 days, C3H mouse, FIG. 2B): excellent when compared with that of fibronectin
- healing of acute wound ([1]; 1.5 cm×1.5 cm wound, 7-week-old C3H mouse, 10 μL topical once a day for 12 days, peptide 100 μM, VPA 500 mM, FIGS. 2A and 2B): could quickly heal the acute wound
- re-epithelialization of the acute wound (H&E staining) [1, 5]: quick re-epithelialization
- collagen in acute wound tissue (hydroxproline assay) (collagen [2]): increased collagen
- β-catenin (fibroblasts): increased β-catenin in a concentration-dependent manner
- wound healing markers β-catenin, keratin 14, α-SMA or collagen I (western blotting) [3]: increased as compared to the control
- collagen in acute wound tissue (Masson's trichrome, picrosirius red and van Gieson staining) (collagen [4]): increased collagen

From US9763994B2, “Composition for promoting wound healing” (INDUSTRY-ACADEMIC COOPERATION FOUNDATION, YONSEI UNIVERSITY, priority 2014, dated 2017)
